For this assay, the system named is NCI-60 cell lines. The format is cell-based, human.
With RGSLLWA, the “Cell Line (NCI-60 cell line the peptide and its motif are associated with)” value is recorded as “UACC 257 Melanoma”.

For GAGSISD, the “Cell Line with which the peptide (and its tripeptide motif) is associated” value (“Cell Line with which the peptide” for short) is on record as “RPMI-8226-Leukemia”.

Consider SVRVGSG, for which the “Cell Line (NCI-60 cell line the peptide and its motif are associated with)” value is reported as “SK-MEL-28 Melanoma”.

On to GQGAASL, for which the “Cell Line with which the peptide” value was “H522-Lung”.

Regarding SAAGLAR, the “Cell Line (NCI-60 cell line the peptide and its motif are associated with)” value is on record as “SK-OV-3-3 Ovarian”.

Turning to GGLSECV, the “Cell Line with which the peptide” value is given as “H226-Lung”.

AVHSGRL: the “Cell Line the peptide is associated with (peptide recovered from phage library selection on this NCI-60 cell line)” value was “ACHN Renal”.

For VRAAGRV, the “Cell Line with which the peptide” value is “Hop-62-Lung”.

On to VWLRGST, for which the “Cell Line (NCI-60 cell line the peptide and its motif are associated with)” value is “M14 Melanoma”.

Turning to QVMMRGS, the “Cell Line with which the peptide” value is given as “HL-60-Leukemia”.

On to VVMIAGS, for which the “Cell Line the peptide is associated with (peptide recovered from phage library selection on this NCI-60 cell line)” value is on record as “MDA-MB-231 Breast”.

As to SLGLGGL, the “Cell Line (NCI-60 cell line the peptide and its motif are associated with)” value is “OVCAR-5 Ovarian”.

With ASLVARN, the “Cell Line (NCI-60 cell line the peptide and its motif are associated with)” value is “SK-OV-3-3 Ovarian”.

Consider IGAVSGW, for which the “Cell Line (NCI-60 cell line the peptide is associated with)” value is “SNB-75 CNS”.

Consider LWLRSRE, for which the “Cell Line (NCI-60 cell line the peptide and its motif are associated with)” value is reported as “UACC 257 Melanoma”.

As for RFYHLRS, the “Cell Line with which the peptide” value is listed as “A549-Lung”.

As for GGRPVER, the “Cell Line the peptide is associated with (peptide recovered from phage library selection on this NCI-60 cell line)” value was “UO31 Renal”.

Consider GGLSNVV, for which the “Cell Line (NCI-60 cell line the peptide is associated with)” value is “SW620-Colon”.

Turning to YDGLVSG, the “Cell Line (NCI-60 cell line the peptide is associated with)” value is recorded as “COLO-205-Colon”.

For GGVAGVS, the “Cell Line with which the peptide” value was “A549-Lung”.

For the substance RGAVAFE, the “Cell Line with which the peptide” value is reported as “SR Leukemia”.

In the case of LYMGGSH, the “Cell Line the peptide is associated with (peptide recovered from phage library selection on this NCI-60 cell line)” value is “TK-10 Renal”.

Turning to SYGLVLP, the “Cell Line with which the peptide” value is listed as “Hop-92-Lung”.

For HFIRGSV, the “Cell Line (NCI-60 cell line the peptide is associated with)” value is “HT-29 Colon”.

In the case of RVSRAGG, the “Cell Line (NCI-60 cell line the peptide and its motif are associated with)” value was “PC3 Prostate”.

With SRLSYRA, the “Cell Line (NCI-60 cell line the peptide and its motif are associated with)” value is recorded as 786-0 Renal.

As for VSSTARG, the “Cell Line (NCI-60 cell line the peptide is associated with)” value is on record as “MALME-3M Melanoma”.

For NGGRVLS, the “Cell Line the peptide is associated with (peptide recovered from phage library selection on this NCI-60 cell line)” value is recorded as “ACHN Renal”.

Turning to LVSTSNR, the “Cell Line (NCI-60 cell line the peptide and its motif are associated with)” value is recorded as “SK-MEL-2 Melanoma”.

Turning to GGSSEFR, the “Cell Line with which the peptide” value is “Hop-92-Lung”.

On to FGLRMSN, for which the “Cell Line the peptide is associated with (peptide recovered from phage library selection on this NCI-60 cell line)” value is recorded as “ACHN Renal”.

Regarding AGLEDLG, the “Cell Line the peptide is associated with (peptide recovered from phage library selection on this NCI-60 cell line)” value is recorded as “RXF393 Renal”.

Take LLGAGTP: the “Cell Line (NCI-60 cell line the peptide and its motif are associated with)” value is “IGROV1 Ovarian”.

On to AGSPLAK, for which the “Cell Line with which the peptide” value is listed as “H23-Lung”.

Take RLGSSGL: the “Cell Line the peptide is associated with (peptide recovered from phage library selection on this NCI-60 cell line)” value is “RXF393 Renal”.

On to LVRDGVL, for which the “Cell Line (NCI-60 cell line the peptide is associated with)” value is recorded as “MALME-3M Melanoma”.

Turning to DHVSGSV, the “Cell Line the peptide is associated with (peptide recovered from phage library selection on this NCI-60 cell line)” value was “CAIK-1 Renal”.

Regarding RDLGGRW, the “Cell Line the peptide is associated with (peptide recovered from phage library selection on this NCI-60 cell line)” value was “MCF-7 Breast”.

Consider GAAASGY, for which the “Cell Line (NCI-60 cell line the peptide is associated with)” value was “SW620-Colon”.

For the substance GEALGLG, the “Cell Line (NCI-60 cell line the peptide and its motif are associated with)” value is “SK-MEL-2 Melanoma”.

With GGLKVWR, the “Cell Line (NCI-60 cell line the peptide and its motif are associated with)” value is given as “PC3 Prostate”.

For SDRGLVV, the “Cell Line (NCI-60 cell line the peptide is associated with)” value is “HCT-15 Colon”.

With RRARGAC, the “Cell Line (NCI-60 cell line the peptide is associated with)” value is “SNB-75 CNS”.

ELWASLG: the “Cell Line (NCI-60 cell line the peptide is associated with)” value is “HT-29 Colon”.

Consider LVSVWSR, for which the “Cell Line (NCI-60 cell line the peptide is associated with)” value is given as “HCT-15 Colon”.

On to AGRPDGV, for which the “Cell Line (NCI-60 cell line the peptide and its motif are associated with)” value is recorded as “DU-145 Prostate”.

FHIWGGR: the “Cell Line the peptide is associated with (peptide recovered from phage library selection on this NCI-60 cell line)” value is recorded as “MDA-MB-231 Breast”.

Take GRMLVSG: the “Cell Line (NCI-60 cell line the peptide and its motif are associated with)” value is “OVCAR-4 Ovarian”.

In the case of VSGDGGS, the “Cell Line (NCI-60 cell line the peptide is associated with)” value is on record as “SNB-75 CNS”.

The record behind these values is patent publication US7781565B2 (priority 2006, dated 2010).
